Assay results from patent US8722910B2, “Diyne compositions” (Evolva AG, priority 2009, dated 2014).
Converted amounts (≈) assume the structure as drawn. Like-named read-outs stand apart in the source and are kept apart here. Numbered stars: 1 amine (or outer) side, 2 acyl side, 3 side chain; on linkers, the order of the positions; unused ones are H or OH. Bridge positions count the residues as written; N and C are the ends. Square brackets hold non-standard residues; d marks the D form. Peptide text beside a SMILES is read from it. * marks the point of attachment. Orn(4R-OH,5R-OH) = O=C([C@H](C[C@@H](O)[C@@H](O)N[*:3])N[*:1])[*:2]; hTyr(3S-OH,4S-OH) = N[C@H](C(=O)O)[C@H](O)[C@@H](O)c1ccc(O)cc1; Pro(3S-OH,4S-Me) = C[C@H]1CN[C@H](C(=O)O)[C@H]1O; Benzoyl(4-octyloxy) = CCCCCCCCOc1ccc(C(=O)*)cc1; Hyp = O=C(O)[C@@H]1C[C@@H](O)CN1

Tests used:
Candida albicans = experiment: In vitro fungicidal activity vs. Candida albicans; conditions: Candida albicans
S. cerevisiae 2229-5C = experiment: IC50 (50% growth inhibition) of diyne compounds; format: cell-based; conditions: strain 2229-5C; for IC50: Saccharomyces cerevisiae, 22295C; for value in brackets after the IC50 bound (not explained): at the bound concentration
Protocol: (§1) The inhibition is partly measured by minimum inhibitory and minimum fungicidal concentration (MIC and MFC, respectively) and partly as IC50 (i.e. concentration required for 50% inhibition).
(§2) IC50 against two different S. cerevisiae strains and two different C. albicans strains by a number of diyne compounds was determined and the results are shown in Table 17.

S. cerevisiae AD1-9 = experiment: IC50 (50% growth inhibition) of diyne compounds; format: cell-based; conditions: strain AD1-9; for IC50: Saccharomyces cerevisiae, AD19
Protocol: as §1, §2

C. albicans DSY1024 = experiment: IC50 (50% growth inhibition) of diyne compounds; format: cell-based; conditions: Candida albicans, DSY1024, read-out: C. albicans IC50
Protocol: as §1, §2

C. albicans SC5314 = experiment: IC50 (50% growth inhibition) of diyne compounds; format: cell-based; conditions: Candida albicans; strain SC5314
Protocol: as §1, §2

(1,3)β-Glucan Synthase = experiment: Inhibition of fungal cell wall synthesis enzymes; format: biochemical; conditions: 20.6 μg/ml
Source text: Specific inhibitors of each enzyme served as positive controls (Cilofungin, a β-glucan synthase inhibitor and nikkomycin Z, a chitin synthase inhibitor).

Question: For `Nc1nc(=O)[nH]cc1F` [5-fluorocytosine], which “Fungicidal Concentration” value (Candida albicans) is on record?
Answer: 1563 ng/mL

Question: What about the MIC90 (Candida albicans; 24 h, read-out: MIC90 24 h) of the same molecule?
Answer: 0.098 µg/mL (≈ 0.759 µM)

Question: What about the MIC90 (Candida albicans; 48 h, read-out: MIC90 48 h) of the same molecule?
Answer: 0.195 µg/mL (≈ 1.51 µM)

Question: Which results are given for `O=C(O)CCCCC/C=C\C#CC#Cc1ccco1` [(Z)-12-(furan-2-yl)dodeca-7-en-9,11-diynoic acid]?
Answer: IC50 (S. cerevisiae 2229-5C): ~50 µg/mL (≈ 195 µM); IC50 (S. cerevisiae AD1-9): ~6.25 µg/mL (≈ 24.4 µM); IC50 (C. albicans DSY1024): 1.8 µg/mL (≈ 7.02 µM); IC50 (C. albicans SC5314): 50 µg/mL (≈ 195 µM)

Question: For `O=C(O)CCCCCC/C=C\C#CC#Cc1ccco1` [(Z)-13-(furan-2-yl)trideca-8-en-10,12-diynoic acid], which IC50 (S. cerevisiae 2229-5C) is on record?
Answer: > 200 µg/mL

Question: And the “value in brackets after the IC50 bound (not explained)” value (S. cerevisiae 2229-5C)?
Answer: 25%

Question: What about the IC50 (S. cerevisiae AD1-9) of the same molecule?
Answer: ~50 µg/mL (≈ 185 µM)

Question: What about the IC50 (C. albicans DSY1024) of the same molecule?
Answer: 0.5 µg/mL (≈ 1.85 µM)

Question: What about the IC50 (C. albicans SC5314) of the same molecule?
Answer: > 200 µg/mL

Question: Which IC50 (S. cerevisiae 2229-5C) does the source give for `CCOC(=O)CCCCCCC/C=C\C#CC#Cc1ccco1` [(Z)-ethyl 14-(furan-2-yl)tetradeca-9-en-11,13-diynoate] here?
Answer: 8.9 µg/mL (≈ 28.5 µM)

Question: What about the IC50 (S. cerevisiae AD1-9) of the same molecule?
Answer: 0.7 µg/mL (≈ 2.24 µM)

Question: And the IC50 (C. albicans SC5314)?
Answer: 9 µg/mL (≈ 28.8 µM)

Question: How did the IC50 (S. cerevisiae 2229-5C) turn out when `COC(=O)CCCCCCC/C=C\C#CC#Cc1ccco1` [(Z)-methyl 14-(furan-2-yl)tetradeca-9-en-11,13-diynoate] was run?
Answer: > 0.4 µg/mL

Question: And the “value in brackets after the IC50 bound (not explained)” value (S. cerevisiae 2229-5C)?
Answer: 4%

Question: What about the IC50 (S. cerevisiae AD1-9) of the same molecule?
Answer: > 0.4 µg/mL

Question: What about the “value in brackets after the IC50 bound (not explained)” value (S. cerevisiae AD1-9; at the bound concentration) of the same molecule?
Answer: 6%

Question: And the IC50 (C. albicans DSY1024)?
Answer: 0.19 µg/mL (≈ 0.637 µM)

Question: What about the IC50 (C. albicans SC5314) of the same molecule?
Answer: 0.4 µg/mL (≈ 1.34 µM)

Question: With `CCCCCCCCOc1ccc(C(=O)N[C@H]2C[C@@H](O)[C@@H](O)NC(=O)[C@@H]3[C@@H](O)[C@@H](C)CN3C(=O)[C@H]([C@@H](C)O)NC(=O)[C@H]([C@H](O)[C@@H](O)c3ccc(O)cc3)NC(=O)[C@@H]3C[C@@H](O)CN3C(=O)[C@H]([C@@H](C)O)NC2=O)cc1` [Cilofungin, reference compound] ({Benzoyl(4-octyloxy)}-[Orn(4R-OH,5R-OH)]T[Hyp][hTyr(3S-OH,4S-OH)]T[Pro(3S-OH,4S-Me)]; lactam 1-C) as the molecule, how does the “% Inhibition, (1,3)β-Glucan Synthase” value ((1,3)β-Glucan Synthase) read?
Answer: 51%

Question: Which results are given for `C[C@@H]1C[C@@H]([C@H](O)CC2CC(=O)NC(=O)C2)C(=O)[C@@H](C)C1` [Cycloheximide]?
Answer: Fungicidal Concentration (Candida albicans): 12,800,000 ng/ml; MIC90 (Candida albicans; 24 h, read-out: MIC90 24 h): 1600 µg/mL (≈ 5690 µM); MIC90 (Candida albicans; 48 h, read-out: MIC90 48 h): 12800 µg/mL (≈ 45500 µM)
